Data as given in publication PMC5706701, “Development of a homogenous high-throughput assay for inositol hexakisphosphate kinase 1 activity” (PLoS ONE, 2017).
Structures can show the parent of a compound that is named as a salt. Where two headings read alike, the source gives them in different places.

Molecular target: T1, Human IP6K1 (Homo sapiens, UniProt Q92551)
T1 construct: GST (N, cleaved yes); made in house; host or cells: C43 E. coli, pGEX-6P-2
Experiment: IP6K1 high-throughput screen of the Sigma LOPAC (ADP-Glo Max, single point);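 note: final compound concentration 10µM in 5% DMSO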
Type: biochemical

[1] = LOPAC single-point screen, ADP-Glo Max raw signal per well
[2] = LOPAC single-point screen, Z-score against plate average and StDev
[3] = Sigma LOPAC single-point screen, ADP-Glo Max raw signal per well
[4] = Sigma LOPAC single-point screen, Z-score from plate average and StDev
[5] = LOPAC single-point screen, ADP-Glo Max luminescence raw signal per well
[6] = LOPAC single-point screen, Z-score relative to plate average and StDev
[7] = LOPAC single-point screen, Z-score from plate average and StDev
[8] = LOPAC single-point screen, Z-score from raw signal with plate average and StDev

T1 sequence (Q92551 whole entry): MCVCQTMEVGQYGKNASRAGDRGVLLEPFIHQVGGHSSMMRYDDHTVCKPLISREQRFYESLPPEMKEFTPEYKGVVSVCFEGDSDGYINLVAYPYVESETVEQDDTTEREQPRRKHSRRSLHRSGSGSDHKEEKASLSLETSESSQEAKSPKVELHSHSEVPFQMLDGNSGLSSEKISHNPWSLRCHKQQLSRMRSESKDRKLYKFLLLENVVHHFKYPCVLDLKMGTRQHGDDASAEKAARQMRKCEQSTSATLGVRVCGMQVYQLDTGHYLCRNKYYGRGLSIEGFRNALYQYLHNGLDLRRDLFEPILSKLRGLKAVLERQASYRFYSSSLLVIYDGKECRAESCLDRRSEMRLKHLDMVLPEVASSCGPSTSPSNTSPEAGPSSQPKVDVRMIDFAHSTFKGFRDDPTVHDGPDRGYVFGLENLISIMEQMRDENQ

OC(CN1CCN(c2cccc(Cl)c2)CC1)C(c1ccccc1)c1ccccc1 (stereo not drawn) [BRL 15572]
Raw Signal [1]: 57949 | Z-score [2]: 0.006323

CCOC(=O)C(C)(C)Oc1ccc(Cl)cc1 [Clofibrate]
Raw Signal [1]: 58171 | Z-score [2]: 0.04542

COc1ccc(CCCOC(Cn2ccnc2)c2ccc(OC)cc2)cc1 (stereo not drawn) [SKF 96365]
Raw Signal [1]: 56420 | Z-score [2]: 0.07697

Nc1nc2[nH]c(=O)cnc2c(=O)[nH]1 [Isoxanthopterin]
Raw Signal [3]: 59100 | Z-score [4]: 0.7908

Oc1ccccc1O [Pyrocatechol]
Raw Signal [5]: 49319 | Z-score [6]: -1.514

CNC(=O)[C@H]1O[C@@H](n2cnc3c(N)ncnc32)[C@H](O)[C@@H]1O [5 -N-Methyl carboxamidoadenosine]
Raw Signal [5]: 66682 | Z-score [7]: 1.544

O=C(Nc1ccc([N+](=O)[O-])cc1Cl)c1cc(Cl)ccc1O [Niclosamide]
Raw Signal [1]: 53914 | Z-score [2]: -0.08057

COc1ccc2[nH]cc(CCNC(C)=O)c2c1 [Melatonin]
Raw Signal [1]: 53452 | Z-score [8]: -0.1582

O=C(/C=C/c1ccc(O)cc1)c1ccc(O)cc1O [Isoliquiritigenin]
Raw Signal [1]: 53778 | Z-score [8]: -0.1034

OC[C@H]1O[C@@H](n2cnc3c(NC4CCCC4)ncnc32)[C@H](O)[C@@H]1O [N6-Cyclopentyladenosine]
Raw Signal [1]: 55487 | Z-score [8]: -0.4273

Cl.NC1(C(=O)O)CC1
Raw Signal [3]: 65481 | Z-score [4]: 1.333

CCCCC[C@H](CC(=O)NO)C(=O)N[C@H](C(=O)N1CCC[C@H]1CO)C(C)C [Actinonin]
Raw Signal [3]: 64769 | Z-score [4]: 1.208

O=C1CN(/N=C/c2ccc(-c3ccc([N+](=O)[O-])cc3)o2)C(O)=N1 [Dantrolene sodium]
Raw Signal [5]: 49715 | Z-score [6]: -1.107

CC(/C=C/c1cccc(Oc2ccc(F)cc2)c1)N(O)C(N)=O (stereo not drawn) [BWB70C]
Raw Signal [1]: 58720 | Z-score [2]: 0.1421

NC(=O)c1ncn([C@@H]2O[C@H](CO)[C@@H](O)[C@H]2O)c1O [Mizoribine]
Raw Signal [5]: 51474 | Z-score [6]: -0.4906

OCCN1CCN(CCCN2c3ccccc3Sc3ccc(Cl)cc32)CC1 [Perphenazine]
Raw Signal [3]: 57078 | Z-score [4]: 0.4511

CN1CCc2ccccc2Cc2[nH]c3ccccc3c2CC1 [LE 300]
Raw Signal: 53844 | Z-score: -0.09233

COc1cc(C(O)C(=O)O)ccc1O (racemic) [(±)-Vanillylmandelic acid]
Raw Signal [5]: 52849 | Z-score [6]: -0.4708

O=C1CC[C@@]2(O)[C@H]3Cc4ccc(O)c5c4[C@@]2(CCN3CC2CC2)[C@H]1O5 [Naltrexone hydrochloride]
Raw Signal [1]: 52231 | Z-score [8]: -0.3634

CCCCCCCC/C=C\CCCCCCCC(=O)NCCO [N-Oleoylethanolamine]
Raw Signal [1]: 53081 | Z-score [8]: -0.2205

O=C[C@H](Cl)[C@@H](O)[C@H](O)[C@H](O)CO [2-Chloro-2-deoxy-D-glucose]
Raw Signal [3]: 57775 | Z-score [4]: 0.5297

COc1ccc(NC(=O)c2ccc(-c3ccc(-c4noc(C)n4)cc3C)cc2)cc1N1CCN(C)CC1.Cl [GR 127935 hydrochloride]
Raw Signal [5]: 51529 | Z-score [6]: -0.4813

C[N+]1(C)[C@@H]2CC[C@H]1C[C@@H](OC(=O)C(CO)c1ccccc1)C2 (stereo partly drawn) [Atropine methyl nitrate]
Raw Signal [3]: 60117 | Z-score [4]: 0.3882

Cl.Nc1cc(Cl)c(N=C2NCCN2)c(Cl)c1 [p-Aminoclonidine hydrochloride]
Raw Signal [1]: 56073 | Z-score [8]: -0.3241

C[N+]1(C)CCOC(O)(c2ccc(-c3ccc(C4(O)C[N+](C)(C)CCO4)cc3)cc2)C1 (stereo not drawn) [Hemicholinium-3]
Z-score [8]: -0.115

CN1[C@@H]2CC[C@H]1C[C@@H](OC(=O)c1cc(Cl)cc(Cl)c1)C2 [3-Tropanyl-3,5-dichlorobenzoate]
Raw Signal [1]: 53877 | Z-score [8]: -0.4171

Nc1c(S(=O)(=O)O)cc(Nc2ccc(Nc3nc(Cl)nc(Nc4cccc(S(=O)(=O)O)c4)n3)c(S(=O)(=O)O)c2)c2c1C(=O)c1ccccc1C2=O [Reactive Blue 2]
Raw Signal [5]: 20201 | Z-score [6]: -6.96

O=NN(CCCl)C(=O)NCCCl [Carmustine]
Raw Signal [5]: 54247 | Z-score [6]: -0.6457

N#CC(=C(/N)Sc1ccccc1N)/C(C#N)=C(/N)Sc1ccccc1N [U0126]
Raw Signal [1]: 55334 | Z-score [8]: -0.134

N[C@@H](Cc1c[nH]c2ccc(O)cc12)C(=O)O [5-Hydroxy-L-tryptophan]
Raw Signal [3]: 60622 | Z-score [4]: 1.108

CC(C)NC[C@H](O)COc1cccc2ccccc12 [(S)-Propranolol hydrochloride]
Raw Signal [3]: 59687 | Z-score [4]: 0.7117

O=c1c(-c2ccc(O)cc2)coc2cc(O)ccc12 [Daidzein]
Raw Signal [3]: 57311 | Z-score [4]: 0.4354

Cl.Nc1ccn([C@@H]2O[C@H](CO)[C@@H](O)[C@@H]2O)c(=O)n1
Raw Signal [5]: 65878 | Z-score [7]: 1.403

NC(Cc1ccc(Cl)cc1)C(=O)O (racemic) [(±)-p-Chlorophenylalanine]
Raw Signal [5]: 55203 | Z-score [6]: -0.4773

CN1CCN(C2Cc3ccccc3Sc3ccc(Cl)cc32)CC1.O=C(O)/C=C\C(=O)O (racemic) [(±)-Octoclothepin maleate]
Raw Signal [3]: 60782 | Z-score [4]: 1.073

C[C@]12CCC(=O)C=C1CC[C@@H]1[C@@H]2C(=O)C[C@@]2(C)[C@H]1CC[C@]2(O)C(=O)CO [Cortisone]
Raw Signal [3]: 65066 | Z-score [4]: 1.26

Cn1cnc([N+](=O)[O-])c1Sc1ncnc2nc[nH]c12 [Azathioprine]
Raw Signal [5]: 52333 | Z-score [6]: -0.9828

COc1cc2ncnc(Nc3cccc(Cl)c3)c2cc1OC [Tyrphostin AG 1478]
Raw Signal [3]: 57891 | Z-score [4]: 0.3628

Cl.Oc1cc2c(cc1O)C(c1ccccc1)CNCC2 (racemic) [(±)-SKF-38393 hydrochloride]
Raw Signal [5]: 48418 | Z-score [6]: -1.371

COc1cccc(OC)c1OCCNCC1CSc2ccccc2O1 (stereo not drawn) [Benoxathian hydrochloride]
Raw Signal [1]: 57648 | Z-score [2]: -0.04669

[H]/N=C(/NC)NCCC[C@H](N)C(=O)O [NG-Monomethyl-L-arginine acetate]
Raw Signal [5]: 51513 | Z-score [6]: -0.484

O=C(O)C=Cc1c[nH]cn1 [4-Imidazoleacrylic acid]
Raw Signal [1]: 54766 | Z-score [8]: -0.2444

CC(=O)Oc1cc(C(C)C)c(OCCN(C)C)cc1C [Moxisylyte hydrochloride]
Raw Signal [1]: 54969 | Z-score [2]: 0.0967

C[N+]1(C)CCc2cc3c(cc2[C@H]1[C@@H]1OC(=O)c2c1ccc1c2OCO1)OCO3.[Br-] [(-)-Bicuculline methbromide, 1(S), 9(R)]
Raw Signal [1]: 56332 | Z-score [8]: -0.2785

CCCC1O[C@@H]2C[C@H]3[C@@H]4CCC5=CC(=O)C=C[C@]5(C)[C@H]4[C@@H](O)C[C@]3(C)[C@]2(C(=O)CO)O1 (stereo partly drawn) [Budesonide]
Raw Signal [5]: 54430 | Z-score [6]: -0.6135

CC(C)OC(=O)C(C)(C)Oc1ccc(C(=O)c2ccc(Cl)cc2)cc1 [Fenofibrate]
Raw Signal [5]: 61843 | Z-score [7]: 1.356

COc1cccc(OC)c1OCCNCC1COc2ccccc2O1.Cl (stereo not drawn) [WB-4101 hydrochloride]
Raw Signal [3]: 58268 | Z-score [4]: 0.6298
